Measured values: US9278925B2, “Substituted 3-(biphenyl-3-yl)-4-hydroxy-8-methoxy-1-azaspiro[4.5]dec-3-en-2-one” (BAYER INTELLECTUAL PROPERTY GMBH, priority 2011, dated 2016)
Values joined by “and” are separate entries in the source; they are usually repeats but may differ in a detail not shown here. Equal entries are not always repeated. Where two headings read alike, the source gives them in different places.

Tests used:
[1] = reference substances with known distribution coefficients; cited from earlier work
[2] = molecular target: human serum albumin (HSA) (Homo sapiens (Human), UniProt P02768); assay: Protein binding to human serum albumin (HSA-Transil); details: buffer pH 7.4
Method: Assays for Determining Membrane Affinity logMA and Protein Binding to Human Serum Albumin (HSA): Determination of membrane affinity and protein binding to human serum albumin (HSA) was carried out via Transil technology (literature: A. Loidl-Stahlhofen, A. Eckert, T. Hartmann, M. […] Pharm Sci 90, 599-606 (2001)). Transil® (commercially available from Sovicell in Leipzig, Germany) are glass beads (diameter 10-12 μm) coated with a double-layer membrane of phosphatidylcholine (MA-Transil) or covalently attached human serum albumin (HSA-Transil). To determine the logMA and the protein binding constant to HSA, the commercially available TRANSIL Intestinal Absorption & HSA Binding Combined Assay Kit was used. This is a 96-well microtitre plate (96 well-MTP) which is filled with Transil and can be used to determine MA-Transil and HSA-Transil binding of in each case eight active compounds. […] Two wells serve as reference and are only filled with buffer pH 7.4. Five further wells contain MA-Transil in various increasing concentrations, the five remaining wells contain HSA-Transil in various increasing concentrations. To determine binding of an active compound to Transil, the supernatant of the wells with Transil was quantified against the reference solution without Transil via HPLC-MS coupling (HPLC-MS=high performance liquid chromatography/mass spectrometry). This is how the individual steps of the assay were carried out: From the internal substance store, the active compounds were delivered in a 96-well MTP. This plate is referred to as mother plate. […] Warfarin, whose membrane affinity and binding to HSA is known, serves to check whether the measurement is correct. […] Using a Hamilton pipetting robot Microlab STAR, the 96 active compounds from the daughter plate were divided onto 12 Transil plates in total. From each well of the daughter plate, 12 times 20 μl were removed. The concentration of each well of the Transil plate was 0.25 μmol/liter, which corresponds to a dilution of 1 to 10. […] The filled Transil plates were each resuspended for two minutes, then allowed to stand at room temperature for at least two minutes and then centrifuged at 600 rotations per minute for five minutes. The pipetting robot was then used to remove 20 μl of supernatant from each well of the Transil plate and to transfer these to a separate microtitre plate. […] Prior to quantification of the active compounds by HPLC-MS, an optimization has to be carried out for each active compound where by way of a single injection daughter ion and optimum electrical voltages are determined. […] This microtitre plate was measured by HPLC-MS using the software Discovery Quant Optimize from AB Sciex. The three pooled microtitre plates were measured by HPLC-MS using the software Discovery Quant Analyze from AB Sciex. • Sciex Triple Quad 5500 mass spectrometer (from AB Sciex) • PAL Autosampler DLW Option Software: Analyst 1.4 (from AB Sciex) • Discovery Quant Optimize (from AB Sciex) • Discovery Quant Analyze (from AB Sciex) Optimization: […] Column: Poroshell 120 SB-C18 2.7 μm 3×30 mm Injection volume: 2 μl Flow rate: 1 ml/min: […] Evaluation of the HPLC peaks was carried out using Discovery Quant Analyze. The results (logMA and binding constant to HSA Kd) were calculated using an Excel workbook provided by Sovicell.

[3] = molecular target: human ACC1 (Homo sapiens, UniProt Q13085); assay: Human ACC1 enzyme assay (ADP-Glo); format: biochemical; details: individual measurement (measurement no./preparation no. in table); read-out: ACC 1 IC50
Method: (§1) Typical concentrations were in the range of 1.75 μl.

[4] = test system: human ACC1; assay: Human ACC1 enzyme assay (ADP-Glo); format: biochemical; details: for Ratio IC50s ACC2/ACC1 (respective measurement): pairwise, same dilution series
Method: as §1

[5] = Plasma protein binding by equilibrium dialysis; format: in vitro ADME
Method: The binding of test substances to plasma proteins is determined by equilibrium dialysis by means of the Ht-dialysis apparatus (96-well) made of Teflon and a semipermeable membrane (regenerated cellulose, MWCO 12-14K). This separates 150 μl each of a plasma side and a buffer side (50 mM phosphate buffer). The test substance is added in 2 concentrations (usually 3 and 0.3 μM) to the plasma side and binds to plasma proteins. The unbound fraction of the test substance passes through the membrane and is distributed on either side until equilibrium is established (after approx. 6-8 h at 37° C.). The substance concentration on the buffer side and the plasma side is determined by LC-MS analysis. For this, both sides are brought by dilution with buffer or plasma to the same matrix (10% plasma) and then precipitated with methanol. The free (unbound) fraction (fu) is calculated from the quotient of the buffer and plasma concentration. Stability tests and recovery tests are run concurrently as controls. In addition, the substance in buffer is dialysed against buffer, to check the nonspecific binding to apparatus and membrane and establishment of equilibrium. Because during incubation the osmotic pressure of the plasma proteins leads to dilution of the plasma (volume shift), this possible error is determined by weighing blank plasma samples and is included in the calculation of fu. Establishment of equilibrium and plasma stability should have a value not lower than 80% and the recovery should be at least 30%. A free fraction of <1% is regarded as high, between 1 and 10% as moderate and >10% as low plasma protein binding.

[6] = Membrane affinity logMA (MA-Transil); format: physicochemical; details: buffer pH 7.4
Method: Assays for Determining Membrane Affinity logMA and Protein Binding to Human Serum Albumin (HSA):
Determination of membrane affinity and protein binding to human serum albumin (HSA) was carried out via Transil technology (literature: A. Loidl-Stahlhofen, A. Eckert, T. Hartmann, M. Schöttner J Pharm Sci 90, 599-606 (2001)). Transil® (commercially available from Sovicell in Leipzig, Germany) are glass beads (diameter 10-12 μm) coated with a double-layer membrane of phosphatidylcholine (MA-Transil) or covalently attached human serum albumin (HSA-Transil).
To determine the logMA and the protein binding constant to HSA, the commercially available TRANSIL Intestinal Absorption & HSA Binding Combined Assay Kit was used. This is a 96-well microtitre plate (96 well-MTP) which is filled with Transil and can be used to determine MA-Transil and HSA-Transil binding of in each case eight active compounds. For each active compound, the Transil plate provides a row of 12 wells. Two wells serve as reference and are only filled with buffer pH 7.4. Five further wells contain MA-Transil in various increasing concentrations, the five remaining wells contain HSA-Transil in various increasing concentrations.
To determine binding of an active compound to Transil, the supernatant of the wells with Transil was quantified against the reference solution without Transil via HPLC-MS coupling (HPLC-MS=high performance liquid chromatography/mass spectrometry).
This is how the individual steps of the assay were carried out:
From the internal substance store, the active compounds were delivered in a 96-well MTP. This plate is referred to as mother plate. Each well contained 30 μl of a 10 mmol solution of active compound in DMSO (dimethyl sulphoxide). Two wells at the start (well A1) and at the end of the plate (well H12) were filled with 30 μl of a 10 mmol solution of warfarin in DMSO. Warfarin, whose membrane affinity and binding to HSA is known, serves to check whether the measurement is correct. The mother plate was used to prepare a daughter plate with a 1 to 4000 dilution with a mixture of buffer pH 7.4 and DMSO in a ratio of 1+1. The active compound concentration of each well was 2.5 μmol/liter, the volume of each well was 400 μl.
Using a Hamilton pipetting robot Microlab STAR, the 96 active compounds from the daughter plate were divided onto 12 Transil plates in total. From each well of the daughter plate, 12 times 20 μl were removed. The concentration of each well of the Transil plate was 0.25 μmol/liter, which corresponds to a dilution of 1 to 10. The DMSO content was 5%.
The filled Transil plates were each resuspended for two minutes, then allowed to stand at room temperature for at least two minutes and then centrifuged at 600 rotations per minute for five minutes. The pipetting robot was then used to remove 20 μl of supernatant from each well of the Transil plate and to transfer these to a separate microtitre plate. Here, the supernatants of in each case four Transil plates were pooled in a microtitre plate, so that at the end there were three pooled microtitre plates with in each case 80 μl of solution and an active compound concentration of 62.5 nM per well.
Prior to quantification of the active compounds by HPLC-MS, an optimization has to be carried out for each active compound where by way of a single injection daughter ion and optimum electrical voltages are determined. To this end, the pipetting robot prepared a dilution of the mother plate of 1 to 10 000 000 in an acetonitrile/water mixture in a ratio of 8+2 in a separate microtitre plate. This microtitre plate was measured by HPLC-MS using the software Discovery Quant Optimize from AB Sciex. The three pooled microtitre plates were measured by HPLC-MS using the software Discovery Quant Analyze from AB Sciex. […]

[7] = human plasma, read-out: fu [%] (human)
[8] = mouse plasma, read-out: fu [%] (mouse)

human serum albumin (HSA), sequence (P02768 25-609): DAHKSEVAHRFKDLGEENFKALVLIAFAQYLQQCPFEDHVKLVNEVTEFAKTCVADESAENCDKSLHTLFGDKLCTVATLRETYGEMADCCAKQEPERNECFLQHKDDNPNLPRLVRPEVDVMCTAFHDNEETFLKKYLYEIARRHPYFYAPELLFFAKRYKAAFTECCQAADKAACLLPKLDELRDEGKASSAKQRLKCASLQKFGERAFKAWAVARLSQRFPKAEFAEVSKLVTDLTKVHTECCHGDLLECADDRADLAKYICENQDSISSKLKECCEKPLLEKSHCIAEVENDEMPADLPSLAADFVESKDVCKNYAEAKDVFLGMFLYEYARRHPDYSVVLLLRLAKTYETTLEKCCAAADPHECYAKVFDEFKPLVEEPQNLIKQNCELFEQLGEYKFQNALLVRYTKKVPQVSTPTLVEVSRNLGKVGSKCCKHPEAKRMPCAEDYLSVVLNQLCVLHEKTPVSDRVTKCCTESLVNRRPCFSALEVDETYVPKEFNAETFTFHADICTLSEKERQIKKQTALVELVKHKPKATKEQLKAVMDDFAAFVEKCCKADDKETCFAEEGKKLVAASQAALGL

Compound	log P [1]	Kd [2]	IC50 [3]	Selectivity ACC1 vs. ACC2 (mean of the individual measurements ± standard deviation) [4]	Ratio IC50s ACC2/ACC1 (respective measurement) [4]	fraction unbound [5, 7]	fraction unbound [5, 8]	logMA [6]
COC(=O)c1ccccc1 [methyl benzoate]	2.1							
Cc1ccc(-c2ccc(Cl)cc2)cc1C1=C(O)[C@]2(CC[C@H](C(F)(F)F)CC2)NC1=O [V.1-b, (5s,8s)-3-(4′-Chloro-4-methylbiphenyl-3-yl)-4-hydroxy-8-(trifluoromethyl)-1-azaspiro[4.5]dec-3-en-2-one]		3070 nM	109 nM and 111 nM	9.8 ± 1.4	11.2 and 8.4	0.0007	0.0241	2.38
Cc1ccc(-c2ccc(Cl)c(F)c2)cc1C1=C(O)[C@]2(CC[C@H](C(F)(F)F)CC2)NC1=O [V.2-b, (5s,8s)-3-(4′-Chloro-3′-fluoro-4-methylbiphenyl-3-yl)-4-hydroxy-8-(trifluoromethyl)-1-azaspiro[4.5]dec-3-en-2-one]				9.4 ± 0.8	8.6 and 10.3	0.0005	0.019	2.55
Clc1ccc(C(c2ccc(Cl)cc2)C(Cl)(Cl)Cl)cc1 [DDT]	6.2							
c1ccc(-c2cccc(-c3ccccc3)n2)cc1 [2,6-diphenylpyridine]	4.9							
